In US12202835B2, “Substituted aromatic ring-linked dioxinoquinazolines and dioxinoquinolines as kinase inhibitors” (BEIJING SCITECH-MQ PHARMACEUTICALS LIMITED, priority 2018, dated 2025):

Biological target: VEGFR-2 kinase (Homo sapiens (Human), UniProt P35968)
Assay: Assay of small molecular compounds for inhibiting the activity of VEGFR-2 kinase (LANCE TR-FRET)
Type: biochemical
Conditions: read-out: VEGFR2 IC50
Method in brief: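 LANCE TR-FRET with human VEGFR-2 (2× stock 0.5 nM) preincubated 30 min with compound (final 2500 to 0.042 nM, 11-point 3-fold), then ULight-JAK-1 (Tyr1023) peptide/ATP added (4× stocks 200 nM/40 μM). Reaction 60 min room temperature, 4% DMSO; IC50 from inhibition-rate curve.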

VEGFR-2 kinase, sequence (P35968 20-1356): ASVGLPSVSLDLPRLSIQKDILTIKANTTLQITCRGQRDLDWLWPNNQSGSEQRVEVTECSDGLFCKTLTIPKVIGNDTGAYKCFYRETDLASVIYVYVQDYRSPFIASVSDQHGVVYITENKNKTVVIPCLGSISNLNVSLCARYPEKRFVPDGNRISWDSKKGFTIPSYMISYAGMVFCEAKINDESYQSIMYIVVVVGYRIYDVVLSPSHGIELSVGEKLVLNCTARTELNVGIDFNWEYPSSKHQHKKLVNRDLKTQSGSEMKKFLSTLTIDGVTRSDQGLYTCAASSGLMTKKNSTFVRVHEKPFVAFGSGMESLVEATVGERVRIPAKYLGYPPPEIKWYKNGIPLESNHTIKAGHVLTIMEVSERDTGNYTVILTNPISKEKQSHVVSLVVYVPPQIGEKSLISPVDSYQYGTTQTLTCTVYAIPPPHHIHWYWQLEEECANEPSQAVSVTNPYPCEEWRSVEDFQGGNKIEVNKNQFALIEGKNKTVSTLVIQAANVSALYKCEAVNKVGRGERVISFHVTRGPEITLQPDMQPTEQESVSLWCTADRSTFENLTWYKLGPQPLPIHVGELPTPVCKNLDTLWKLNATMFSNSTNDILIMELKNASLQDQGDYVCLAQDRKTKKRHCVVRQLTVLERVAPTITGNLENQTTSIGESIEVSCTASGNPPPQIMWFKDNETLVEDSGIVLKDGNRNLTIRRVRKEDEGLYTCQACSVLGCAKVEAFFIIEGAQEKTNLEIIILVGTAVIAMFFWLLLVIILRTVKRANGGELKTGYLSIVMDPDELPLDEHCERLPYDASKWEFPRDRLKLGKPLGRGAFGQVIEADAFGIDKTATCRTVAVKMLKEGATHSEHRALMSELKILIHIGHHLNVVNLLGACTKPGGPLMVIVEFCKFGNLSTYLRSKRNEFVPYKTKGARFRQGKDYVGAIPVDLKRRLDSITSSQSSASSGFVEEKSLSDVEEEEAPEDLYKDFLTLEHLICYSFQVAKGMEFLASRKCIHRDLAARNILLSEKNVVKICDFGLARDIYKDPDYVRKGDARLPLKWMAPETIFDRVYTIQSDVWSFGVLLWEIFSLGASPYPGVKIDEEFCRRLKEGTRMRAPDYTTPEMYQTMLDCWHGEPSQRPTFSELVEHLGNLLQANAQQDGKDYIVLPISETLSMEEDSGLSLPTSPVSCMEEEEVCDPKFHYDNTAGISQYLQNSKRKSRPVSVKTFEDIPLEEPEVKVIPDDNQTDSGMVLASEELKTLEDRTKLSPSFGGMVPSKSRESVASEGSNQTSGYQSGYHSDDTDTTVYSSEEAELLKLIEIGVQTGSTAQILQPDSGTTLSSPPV

IC50 [nM] | Structure (SMILES)
≤ 50 | COc1cc2ncnc(Oc3ccc(NC(=O)c4cccn(-c5ccc(F)cc5)c4=O)cc3F)c2c2c1OCCO2 [Example 1, N-(3-fluoro-4-((5-methoxy-2,3-dihydro-[1,4]dioxino[2,3-f]quinazolin-10-yl)oxy)phenyl)-1-(4-fluorophenyl)-2-oxo-1,2-dihydropyridine-3-carboxamide]
50 to 500 | CCOc1ccn(-c2ccc(F)cc2)c(=O)c1C(=O)Nc1ccc(Oc2ccnc3cc(OC(C)C)c4c(c23)OCCO4)c(F)c1 [Example 63, N-(4-((5-isopropoxy-2,3-dihydro-[1,4]dioxino[2,3-f]quinolin-10-yl)oxy)-3-fluorophenyl)-4-ethoxy-1-(4-fluorophenyl)-2-oxo-1,2-dihydropyridine-3-carboxamide]
≤ 50 | CCOc1ccn(-c2ccc(F)cc2)c(=O)c1C(=O)Nc1ccc(Oc2ccnc3cc(OCCCN4CCCC4)c4c(c23)OCCO4)c(F)c1 [Example 52, N-(4-((5-(3-(pyrrolidin-1-yl)propoxy)-2,3-dihydro-[1,4]dioxino[2,3-f]quinolin-10-yl)oxy)-3-fluorophenyl)-4-ethoxy-1-(4-fluorophenyl)-2-oxo-1,2-dihydropyridine-3-carboxamide]
50 to 500 | CCOc1ccn(-c2ccc(F)cc2)c(=O)c1C(=O)Nc1ccc(Oc2ccnc3cc(OCCCN4CCOCC4)c4c(c23)OCCO4)cc1Cl [Example 73, N-(2-chloro-4-((5-(3-morpholinopropoxy)-2,3-dihydro-[1,4]dioxino[2,3-f]quinolin-10-yl)oxy)phenyl)-4-ethoxy-1-(4-fluorophenyl)-2-oxo-1,2-dihydropyridine-3-carboxamide]
500 to 5000 | COCCCOc1cc2nccc(Oc3ccc(NC(=O)c4cn(C)c(=O)n(-c5ccc(F)cc5)c4=O)cc3F)c2c2c1OCCO2 [Example 80, N-(3-fluoro-4-((5-(3-methoxypropoxy)-2,3-dihydro-[1,4]dioxino[2,3-f]quinolin-10-yl)oxy)phenyl)-3-(4-fluorophenyl)-1-methyl-2,4-dioxo-1,2,3,4-tetrahydropyrimidine-5-carboxamide]
500 to 5000 | CC(C)n1cc(C(=O)Nc2ccc(Oc3ccnc4cc(OCCCN5CCS(=O)(=O)CC5)c5c(c34)OCCO5)c(F)c2)c(=O)n(-c2ccc(F)cc2)c1=O [Example 76, N-(3-fluoro-4-((5-(3-(1,1-dioxidothiomorpholino)propoxy)-2,3-dihydro-[1,4]dioxino[2,3-f]quinolin-10-yl)oxy)phenyl)-3-(4-fluorophenyl)-1-isopropyl-2,4-dioxo-1,2,3,4-tetrahydropyrimidine-5-carboxamide]
≤ 50 | CCOc1ccn(-c2ccc(F)cc2)c(=O)c1C(=O)Nc1ccc(Oc2ccnc3cc(OCCCN4CCS(=O)(=O)CC4)c4c(c23)OCCO4)c(F)c1 [Example 51, N-(4-((5-(3-(1,1-dioxidothiomorpholino)propoxy)-2,3-dihydro-[1,4]dioxino[2,3-f]quinolin-1 0-yl)oxy)-3-fluorophenyl)-4-ethoxy-1-(4-fluorophenyl)-2-oxo-1,2-dihydropyridine-3-carboxamide]
500 to 5000 | CCOc1cn(-c2ccc(F)cc2C)nc1C(=O)Nc1ccc(Oc2ncnc3cc(OCCCN4CCOCC4)c4c(c23)OCCO4)c(F)c1 [Example 12, 1-(4-fluoro-2-methylphenyl)-N-(3-fluoro-4-((5-(3-morpholinopropoxy)-2,3-dihydro-[1,4]dioxino[2,3-f]quinazolin-10-yl)oxy)phenyl)-4-ethoxy-1H-pyrazole-3-carboxamide]
≤ 50 | CCOc1ccn(-c2ccc(F)cc2)c(=O)c1C(=O)Nc1ccc(Oc2ccnc3cc(OCCO)c4c(c23)OCCO4)c(F)c1 [Example 53, N-(4-((5-(2-hydroxyethoxy)-2,3-dihydro-[1,4]dioxino[2,3-f]quinolin-10-yl)oxy)-3-fluorophenyl)-4-ethoxy-1-(4-fluorophenyl)-2-oxo-1,2-dihydropyridine-3-carboxamide]
